According to ChEMBL document CHEMBL3885881, “DrugMatrix”:

Species: Rattus norvegicus
Test: DrugMatrix - Regimen: Daily Repeat
Assay type: toxicity, organism-based, Sprague-Dawley
Set-up: regimen Daily Repeat, gender Male, age 6-8 weeks
Details: in vivo, route none, vehicle 100 % UNTREATED
[1] = 0 mg/kg, 120 h, tissue Blood, dose level Control, time 5 day
[2] = 0 mg/kg, 120 h, tissue Plasma, dose level Control, time 5 day
[3] = 0 mg/kg, […], tissue Blood, dose level Control, time 14 day
[4] = 0 mg/kg, […], tissue Plasma, dose level Control, time 14 day
[5] = 50 mg/kg, 120 h, tissue Blood, dose level Low, time 5 day
[6] = 50 mg/kg, 120 h, tissue Plasma, dose level Low, time 5 day
[7] = 50 mg/kg, […], tissue Blood, dose level Low, time 14 day
[8] = 50 mg/kg, […], tissue Plasma, dose level Low, time 14 day
[9] = 60 mg/kg, 120 h, tissue Blood, dose level M1, time 5 day

Diet_Restriction
ABSOLUTE BASOPHIL [1]: 0 CELLS/uL
ABSOLUTE EOSINOPHIL [1]: 42.67 CELLS/uL
ABSOLUTE LYMPHOCYTE [1]: 11593.33 CELLS/uL
ABSOLUTE MONOCYTE [1]: 174.33 CELLS/uL
ABSOLUTE SEGMENTED NEUTROPHIL [1]: 1356.33 CELLS/uL
BASOPHIL [1]: 0%
EOSINOPHIL [1]: 0.33%
ERYTHROCYTE COUNT [1]: 5.67 x10E6/uL
HEMATOCRIT [1]: 43.37%
HEMOGLOBIN [1]: 12.33 G/DL
LEUKOCYTE COUNT [1]: 13.17 x10E3/uL
LYMPHOCYTE [1]: 88%
MEAN CORPUSCULAR HEMOGLOBIN [1]: 21.77 pg
MEAN CORPUSCULAR HEMOGLOBIN CONCENTRATION [1]: 36.93 G/DL
MEAN CORPUSCULAR VOLUME [1]: 58.9 fL
NUCLEATED RED BLOOD CELLS [1]: 0 /100WBC
PLATELET COUNT [1]: 942.33 x10E3/uL
ALANINE AMINOTRANSFERASE [2]: 42.67 u/L
ALBUMIN [2]: 4.2 G/DL
ALKALINE PHOSPHATASE [2]: 336.33 u/L
ASPARTATE AMINOTRANSFERASE [2]: 74 u/L
BLOOD UREA NITROGEN [2]: 12.67 mg/dL
CARBON DIOXIDE [2]: 32.33 mmol/L
CHOLESTEROL [2]: 78.67 mg/dL
CREATINE PHOSPHOKINASE [2]: 847.33 u/L
CREATININE [2]: 0.22 mg/dL
LACTATE DEHYDROGENASE [2]: 139.67 u/L
POTASSIUM [2]: 6.74 MEQ/L
TOTAL BILIRUBIN [2]: 0.13 mg/dL
URIC ACID [2]: 1.3 mg/dL
ABSOLUTE BASOPHIL [3]: 0 CELLS/uL
ABSOLUTE EOSINOPHIL [3]: 46.33 CELLS/uL
ABSOLUTE LYMPHOCYTE [3]: 13977 CELLS/uL
ABSOLUTE MONOCYTE [3]: 264.67 CELLS/uL
ABSOLUTE SEGMENTED NEUTROPHIL [3]: 1445.33 CELLS/uL
BASOPHIL [3]: 0%
EOSINOPHIL [3]: 0.33%
ERYTHROCYTE COUNT [3]: 6.27 x10E6/uL
LEUKOCYTE COUNT [3]: 15.73 x10E3/uL
LYMPHOCYTE [3]: 89%
MEAN CORPUSCULAR HEMOGLOBIN [3]: 22.27 pg
MEAN CORPUSCULAR HEMOGLOBIN CONCENTRATION [3]: 37.13 G/DL
NEUTROPHIL [3]: 9%
NUCLEATED RED BLOOD CELLS [3]: 0 /100WBC
PLATELET COUNT [3]: 923 x10E3/uL
ALANINE AMINOTRANSFERASE [4]: 48.67 u/L
ALKALINE PHOSPHATASE [4]: 360 u/L
ASPARTATE AMINOTRANSFERASE [4]: 67 u/L
CARBON DIOXIDE [4]: 32 mmol/L
CHLORIDE [4]: 99 MEQ/L
CHOLESTEROL [4]: 92.67 mg/dL
CREATINE PHOSPHOKINASE [4]: 220.67 u/L
CREATININE [4]: 0.19 mg/dL
LACTATE DEHYDROGENASE [4]: 88.33 u/L
LIPASE [4]: 10 u/L
PHOSPHORUS [4]: 13.07 mg/dL
POTASSIUM [4]: 6.69 MEQ/L
TOTAL BILIRUBIN [4]: 0.17 mg/dL
TOTAL PROTEIN [4]: 6.33 G/DL
URIC ACID [4]: 1.9 mg/dL
ABSOLUTE BASOPHIL [5]: 0 CELLS/uL
ABSOLUTE EOSINOPHIL [5]: 0 CELLS/uL
ABSOLUTE LYMPHOCYTE [5]: 5557.67 CELLS/uL
ABSOLUTE MONOCYTE [5]: 33.33 CELLS/uL
ABSOLUTE SEGMENTED NEUTROPHIL [5]: 409 CELLS/uL
BASOPHIL [5]: 0%
EOSINOPHIL [5]: 0%
ERYTHROCYTE COUNT [5]: 6.2 x10E6/uL
HEMOGLOBIN [5]: 13.47 G/DL
LEUKOCYTE COUNT [5]: 6 x10E3/uL
LYMPHOCYTE [5]: 93%
MEAN CORPUSCULAR HEMOGLOBIN [5]: 21.73 pg
MEAN CORPUSCULAR HEMOGLOBIN CONCENTRATION [5]: 37.13 G/DL
MEAN CORPUSCULAR VOLUME [5]: 58.43 fL
MONOCYTE [5]: 0.67%
NEUTROPHIL [5]: 6.33%
NUCLEATED RED BLOOD CELLS [5]: 0 /100WBC
PLATELET COUNT [5]: 1004.67 x10E3/uL
ALBUMIN [6]: 4.4 G/DL
ALKALINE PHOSPHATASE [6]: 272.67 u/L
ASPARTATE AMINOTRANSFERASE [6]: 69 u/L
BLOOD UREA NITROGEN [6]: 10 mg/dL
CHOLESTEROL [6]: 67.33 mg/dL
CREATININE [6]: 0.15 mg/dL
GLUCOSE [6]: 121.33 mg/dL
LACTATE DEHYDROGENASE [6]: 95.33 u/L
LIPASE [6]: 10 u/L
PHOSPHORUS [6]: 10.03 mg/dL
POTASSIUM [6]: 6.08 MEQ/L
SODIUM [6]: 146.6 MEQ/L
TOTAL BILIRUBIN [6]: 0.13 mg/dL
TOTAL PROTEIN [6]: 6.27 G/DL
URIC ACID [6]: 1.13 mg/dL
ABSOLUTE BASOPHIL [7]: 0 CELLS/uL
ABSOLUTE EOSINOPHIL [7]: 34 CELLS/uL
ABSOLUTE LYMPHOCYTE [7]: 10004 CELLS/uL
ABSOLUTE MONOCYTE [7]: 145.67 CELLS/uL
ABSOLUTE SEGMENTED NEUTROPHIL [7]: 1049.67 CELLS/uL
BASOPHIL [7]: 0%
EOSINOPHIL [7]: 0.33%
ERYTHROCYTE COUNT [7]: 7.11 x10E6/uL
HEMATOCRIT [7]: 38.27%
LEUKOCYTE COUNT [7]: 11.23 x10E3/uL
LYMPHOCYTE [7]: 89.33%
MEAN CORPUSCULAR HEMOGLOBIN [7]: 19.8 pg
MEAN CORPUSCULAR HEMOGLOBIN CONCENTRATION [7]: 36.77 G/DL
MEAN CORPUSCULAR VOLUME [7]: 53.83 fL
NEUTROPHIL [7]: 9%
NUCLEATED RED BLOOD CELLS [7]: 0 /100WBC
PLATELET COUNT [7]: 891.33 x10E3/uL
ALANINE AMINOTRANSFERASE [8]: 40.33 u/L
ALBUMIN [8]: 4.2 G/DL
ALKALINE PHOSPHATASE [8]: 255.67 u/L
ASPARTATE AMINOTRANSFERASE [8]: 75 u/L
BLOOD UREA NITROGEN [8]: 15 mg/dL
CHOLESTEROL [8]: 62.33 mg/dL
CREATINE PHOSPHOKINASE [8]: 467.33 u/L
CREATININE [8]: 0.22 mg/dL
GLUCOSE [8]: 163.67 mg/dL
LACTATE DEHYDROGENASE [8]: 62.33 u/L
POTASSIUM [8]: 5.28 MEQ/L
TOTAL BILIRUBIN [8]: 0.1 mg/dL
TOTAL PROTEIN [8]: 6.1 G/DL
URIC ACID [8]: 1.5 mg/dL
ABSOLUTE BASOPHIL [9]: 0 CELLS/uL
ABSOLUTE EOSINOPHIL [9]: 49.33 CELLS/uL
ABSOLUTE LYMPHOCYTE [9]: 3766.67 CELLS/uL
ABSOLUTE MONOCYTE [9]: 29.33 CELLS/uL
ABSOLUTE SEGMENTED NEUTROPHIL [9]: 454.67 CELLS/uL
